Source: ChEMBL document CHEMBL1145614, “Antagonists of the human adenosine A2A receptor. Part 3: Design and synthesis of pyrazolo[3,4-d]pyrimidines, pyrrolo[2,3-d]pyrimidines and 6-arylpurines” (Bioorg Med Chem Lett, 2008)
Activity calls are given as the source filed them.

Tests used:
Mus musculus [1] = assay: Reversal of haloperidol-induced hypolocomotion in mouse at 30 mg/kg, ip; assay type: functional, organism-based; set-up: dose 30 mg/kg
Adenosine receptor A2a = Adenosine receptor A2a (Homo sapiens, UniProt P29274)
Description: Binding affinity at human adenosine A2A receptor

Mus musculus [2] = assay: Reversal of haloperidol-induced hypolocomotion in mouse at 30 mg/kg, po; assay type: functional, organism-based; set-up: dose 30 mg/kg
Mus musculus [3] = assay: Reversal of haloperidol-induced hypolocomotion in ip dosed mouse; assay type: functional; details: read-out: MED
Mus musculus [4] = assay: Reversal of haloperidol-induced hypolocomotion in po dosed mouse; assay type: functional; details: read-out: MED
Mus musculus [5] = assay: Reversal of haloperidol-induced hypolocomotion in mouse at 10 mg/kg, po; assay type: functional, organism-based; set-up: dose 10 mg/kg
Mus musculus [6] = assay: Reversal of haloperidol-induced hypolocomotion in mouse at 1 mg/kg, po; assay type: functional, organism-based; set-up: dose 1 mg/kg
Mus musculus [7] = assay: Reversal of haloperidol-induced hypolocomotion in mouse at 10 mg/kg, ip; assay type: functional, organism-based; set-up: dose 10 mg/kg

Sequence of Adenosine receptor A2a (P29274 whole entry): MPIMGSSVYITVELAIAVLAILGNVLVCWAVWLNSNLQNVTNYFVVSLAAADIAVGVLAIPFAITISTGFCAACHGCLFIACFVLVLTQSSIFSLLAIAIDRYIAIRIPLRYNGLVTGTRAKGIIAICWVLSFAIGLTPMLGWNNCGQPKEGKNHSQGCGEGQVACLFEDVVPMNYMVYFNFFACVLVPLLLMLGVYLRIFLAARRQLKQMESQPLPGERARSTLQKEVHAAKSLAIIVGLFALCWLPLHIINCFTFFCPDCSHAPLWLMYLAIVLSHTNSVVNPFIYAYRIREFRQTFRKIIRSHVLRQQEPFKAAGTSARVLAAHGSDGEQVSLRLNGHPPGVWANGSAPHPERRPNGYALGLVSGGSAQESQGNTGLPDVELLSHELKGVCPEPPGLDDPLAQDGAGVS

Row | Ki (Adenosine receptor A2a) [µM] | SMILES | Activity (Mus musculus [1]) | further results
1 |  | Nc1nc(-c2ccco2)c2cnn(Cc3ccccc3Cl)c2n1 | inactive | 
2 | 0.242 | Nc1nc(-c2ccco2)c2cc[nH]c2n1 | Active | 
3 | 0.34 | CS(=O)(=O)c1ccc(Cn2ncc3c(-c4ccco4)nc(N)nc32)cc1 | inactive | 
4 |  | COc1cccc(Cn2ncc3c(-c4ccco4)nc(N)nc32)c1 | Active | 
5 |  | Nc1nc(-c2ccco2)c2ncn(C(=O)NCc3cccs3)c2n1 | Active | Activity (Mus musculus [2]): Active; minimal effective dose (Mus musculus [3]): < 30 mg/kg; minimal effective dose (Mus musculus [4]): 30 mg/kg
6 | 0.023 | Nc1cccc(Cn2cnc3c(-c4ccco4)nc(N)nc32)c1 | Active | Activity (Mus musculus [2]): Active; minimal effective dose (Mus musculus [3]): 10 mg/kg; minimal effective dose (Mus musculus [4]): 30 mg/kg
7 | 0.006 | Cc1cccc(Cn2cnc3c(-c4ccco4)nc(N)nc32)c1 | Active | 
8 | 0.11 | Nc1nc(-c2ccco2)c2cnn(CCc3ccccc3)c2n1 | inactive | 
9 |  | C[C@H](NC(=O)n1cnc2c(-c3ccco3)nc(N)nc21)c1ccccc1 | Active | 
10 |  | Nc1nc(-c2ccco2)c2ncn(Cc3ccccc3)c2n1 | Active | 
11 | 0.045 | Nc1nc(-c2ccco2)c2cnn(CC3CCCCC3)c2n1 | Active | 
12 |  | Nc1nc(-c2ccco2)c2ncn(C(=O)NCCc3ccccc3)c2n1 | Active | 
13 | 0.028 | Nc1nc(-c2ccco2)c2cnn(Cc3cccnc3)c2n1 | Active | 
14 | 0.135 | OCCNc1nc(-c2ccco2)c2cnn(CCc3ccccc3)c2n1 | inactive | 
15 | 0.026 | C[C@@H](NC(=O)n1cnc2c(-c3ccco3)nc(N)nc21)c1ccccc1 | inactive | 
16 | 0.003 | Nc1nc(-c2ccco2)c2cnn(Cc3ccccc3)c2n1 | Active | 
17 | 1.32 | Nc1nc(-c2ccco2)c2cnn(Cc3cccc(C(=O)O)c3)c2n1 | inactive | 
18 | 0.003 | Cc1cccc(Cn2ncc3c(-c4ccco4)nc(N)nc32)c1 | Active | 
19 | 2.09 | Nc1nc(-c2ncc[nH]2)c2cnn(Cc3ccccc3F)c2n1 |  | 
20 | 0.779 | CS(=O)(=O)c1ccc(Cn2cnc3c(-c4ccco4)nc(N)nc32)cc1 |  | 

Row | Ki (Adenosine receptor A2a) [µM] | SMILES | Activity (Mus musculus [1]) | further results
21 | 0.206 | Nc1nc(-c2ccco2)c2ncn(C(=O)Nc3ccccc3)c2n1 | Active | 
22 | 0.005 | Nc1nc(-c2ccco2)c2ncn(Cc3ccccc3F)c2n1 | Active | 
23 |  | Nc1nc(-c2ccco2)c2ncn(C(=O)NCc3ccccc3Cl)c2n1 | Active | 
24 |  | Nc1nc(-c2ccco2)c2cnn(Cc3ccc(C(F)(F)F)cc3)c2n1 | inactive | 
25 | 0.004 | COC(=O)c1cccc(Cn2ncc3c(-c4ccco4)nc(N)nc32)c1 | Active | 
26 | 1.62 | Cn1ccnc1-c1nc(N)nc2c1cnn2Cc1ccccc1F | inactive | 
27 |  | Nc1nc(-c2ccco2)c2ncn(C(=O)NCc3ccc(F)cc3)c2n1 | Active | 
28 |  | Nc1cccc(Cn2ncc3c(-c4ccco4)nc(N)nc32)c1 | Active | 
29 | 0.071 | Nc1nc(-n2ccnn2)c2cnn(Cc3ccccc3F)c2n1 | Active | 
30 |  | Cc1ccc(CNC(=O)n2cnc3c(-c4ccco4)nc(N)nc32)cc1 | Active | 
31 |  | Nc1nc(-c2cc[nH]n2)c2cnn(Cc3ccccc3F)c2n1 | Active | 
32 |  | Nc1nc(-c2ccco2)c2ncn(C(=O)NCc3ccco3)c2n1 | Active | Activity (Mus musculus [2]): Active; minimal effective dose (Mus musculus [3]): < 30 mg/kg; Activity (Mus musculus [5]): Active; minimal effective dose (Mus musculus [4]): 10 mg/kg
33 |  | Nc1nc(-c2ccco2)c2ncn(C(=O)NCc3ccccc3)c2n1 | Active | 
34 | 0.045 | COC(=O)c1cccc(Cn2cnc3c(-c4ccco4)nc(N)nc32)c1 | inactive | 
35 | 0.119 | Nc1nc(-c2ccco2)c2cnn(Cc3ccc([N+](=O)[O-])cc3)c2n1 | inactive | 
36 | 0.013 | CSc1nc(-c2ccco2)c2ncn(C(=O)NCc3ccccc3)c2n1 | inactive | 
37 | 0.056 | Nc1nc(-c2cncs2)c2ncn(C(=O)NCc3ccccc3)c2n1 | Active | 
38 | 1.89 | CN(C)c1nc(-c2ccco2)c2cnn(CCc3ccccc3)c2n1 |  | 
39 | 0.008 | Nc1nc(-c2ccco2)c2ncn(Cc3cccc(Cl)c3)c2n1 | inactive | 
40 | 0.001 | Nc1nc(-c2ccco2)c2cnn(C(=O)NCc3ccccc3)c2n1 | Active | 

Row | Ki (Adenosine receptor A2a) [µM] | SMILES | Activity (Mus musculus [1]) | further results
41 |  | COc1cccc(Cn2cnc3c(-c4ccco4)nc(N)nc32)c1 | Active | 
42 | 0.036 | Nc1nc(-c2ccco2)c2cnn(Cc3ccco3)c2n1 | Active | 
43 |  | Nc1nc(-c2ccco2)c2cnn(Cc3ccccc3N)c2n1 | Active | 
44 | 0.023 | CN(C)c1nc(-c2ccco2)c2ncn(C(=O)NCc3ccccc3)c2n1 | inactive | 
45 |  | Cc1cccc(CNC(=O)n2cnc3c(-c4ccco4)nc(N)nc32)c1 | Active | Activity (Mus musculus [2]): Active; minimal effective dose (Mus musculus [3]): 1 mg/kg; minimal effective dose (Mus musculus [4]): 30 mg/kg
46 | 0.085 | Nc1nc(-c2ccco2)c2ncn(Cc3cccc([N+](=O)[O-])c3)c2n1 | inactive | 
47 |  | Nc1nc(-c2ccco2)c2ncn(Cc3c(F)cccc3F)c2n1 | Active | 
48 |  | Nc1nc(-c2ccccn2)c2cnn(Cc3ccccc3F)c2n1 | Active | 
49 | 0.004 | Nc1nc(-c2ccco2)c2cnn(Cc3ccccc3F)c2n1 | Active | 
50 |  | Nc1nc(-c2ccco2)c2cnn(Cc3c(F)cccc3F)c2n1 | Active | 
51 | 4.1 | Nc1nc(-c2ccco2)c2ncn(Cc3cccc(C(=O)O)c3)c2n1 |  | 
52 | 0.102 | Cc1nc(-c2ccco2)c2ncn(C(=O)NCc3ccccc3)c2n1 |  | 
53 |  | Nc1nc(-c2ccco2)c2cnn(Cc3cccc(Cl)c3)c2n1 | Active | 
54 |  | Nc1nc(-c2ccco2)c2ncn(Cc3ccc(C(F)(F)F)cc3)c2n1 | Active | 
55 | 0.261 | Nc1nc(-c2ccco2)c2nc[nH]c2n1 | Active | Activity (Mus musculus [2]): inactive; Activity (Mus musculus [6]): Active; minimal effective dose (Mus musculus [3]): 10 mg/kg; minimal effective dose (Mus musculus [4]): 1 mg/kg; Activity (Mus musculus [7]): Active
56 | 0.026 | Nc1nc(-c2ccco2)c2cnn(Cc3ccccc3[N+](=O)[O-])c2n1 | inactive | 
57 | 0.048 | Nc1nc(-c2ccco2)c2cn[nH]c2n1 | Active | 
58 |  | Nc1nc(-c2ccco2)c2cnn(Cc3cccc([N+](=O)[O-])c3)c2n1 | Active | 
59 | 0.372 | Nc1nc(-c2ccco2)c2ncn(Cc3ccc([N+](=O)[O-])cc3)c2n1 |  | 

Row | SMILES | Ki (Adenosine receptor A2a) [µM] | Activity (Mus musculus [1]) | further results
60 | Nc1nc(-c2ccccc2)c2ncn(C(=O)NCc3ccccc3)c2n1 | 0.017 | Active | 
61 | Nc1nc(-c2cccs2)c2ncn(C(=O)NCc3ccccc3)c2n1 | 0.013 | inactive | 
62 | Nc1nc(-c2nccs2)c2cnn(Cc3ccccc3F)c2n1 | 0.017 | inactive | 
63 | Nc1nc(-c2ccco2)c2cnn(CCCc3ccccc3)c2n1 | 0.004 | Active | 
64 | Nc1nc(-c2cccs2)c2cnn(Cc3ccccc3F)c2n1 | 0.009 |  | 
